# In patent US7148405B2, “Enzymes responsible for the metabolism of cis-zeatin” (State of Oregon Acting by and through the State Board of …, priority 2000, dated 2006):
# Test system: β-glucosidase
# Experiment: not given
# Settings: reaction product incubated with β-glucosidase for 4 hours
# Protocol: (§1) For FIG. 2B, 200 μL of supernatant obtained from cell culture was incubated with approximately 1 nmol of labeled zeatin and UDPG for 2 hours. For FIG. 2C, Approximately 0.4 nmole of reaction product obtained from reactions similar to FIG. 2B was incubated with β-glucosidase for 4 hours to reconvert the product to zeatin.
row,Compound,re-conversion to cis-zeatin by β-glucosidase
1,cis-zeatin O-glucoside,re-conversion of the reaction product to cis-zeatin by β-glucosidase

# Target: T1, cis-zeatin O-glucosyltransferase (cis-ZOG1) (Zea mays, UniProt Q93XP7)
# T1 construct: His7 (seven histidine residues, from the vector); made in house; host or cells: E. coli XL1 Blue
# T1 sequence (Q93XP7 1-467): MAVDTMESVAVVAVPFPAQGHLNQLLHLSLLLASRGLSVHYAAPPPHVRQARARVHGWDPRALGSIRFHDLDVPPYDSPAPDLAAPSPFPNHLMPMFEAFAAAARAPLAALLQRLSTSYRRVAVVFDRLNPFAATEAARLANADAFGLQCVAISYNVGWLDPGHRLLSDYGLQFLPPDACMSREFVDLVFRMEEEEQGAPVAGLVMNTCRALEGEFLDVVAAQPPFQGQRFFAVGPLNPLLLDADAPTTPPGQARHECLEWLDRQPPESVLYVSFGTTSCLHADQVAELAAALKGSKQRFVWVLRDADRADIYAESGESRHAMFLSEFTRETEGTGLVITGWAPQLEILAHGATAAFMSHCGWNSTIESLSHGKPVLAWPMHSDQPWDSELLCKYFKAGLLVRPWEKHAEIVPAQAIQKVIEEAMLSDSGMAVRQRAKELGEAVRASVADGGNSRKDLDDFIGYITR
# Experiment: Enzyme assay of recombinant cis-ZOG1 with cytokinin substrates and UDPG, products analysed by HPLC
# Format: biochemical
# Settings: recombinant protein, UDPG as glycosyl donor, HPLC analysis
# Protocol: as §1
# 3. Isolation of Recombinant Proteins. To obtain recombinant proteins, the ORF of the selected cDNA was amplified by PCR using primers (SEQ ID NOS: 9 and 10) that generated products having an NcoI site at the 5′ and a XbaI site at the 3′ terminus. The PCR products were digested with NcoI and XbaI restriction enzymes and ligated into a p Trc 99A expression vector (Pharmacia) modified to contain seven histidine residues (CAT or CAC), and transformed into the XL1 Blue cell line. Colonies were selected on AMP-LB plates. […] After 4 hours cells were collected and frozen at −80 C overnight. Cells were resuspended in 0.5 mL of 0.2 M Tris pH 7.5 containing 1 mg/mL of lysozyme. Samples were incubated on ice for 30 minutes, frozen for 10 minutes at −80 C, thawed in cold water, and then DNAase (1 μg/10 μl supernatant) was added. After 10 minutes at room temperature, the samples were sonicated with four 15-second bursts to release proteins from cells. Soluble proteins were collected after centrifugation and used for enzyme assays.
# 4. Enzyme assays and analysis of reaction products. Enzyme activity was determined as reported previously (Dixon et al., Plant Physiol. 90:1316–1321, 1989). Briefly, a specified amount of recombinant protein, ^14C-labeled cis-zeatin (specific activity of 24 mCi/mmol), and a glycosyl donor (4 mM of UDPG) were incubated in MgCl2 (0.07 M) in 0.17 M Tris, pH 8.0. Reaction products were then analyzed by HPLC (Dixon et al., Plant Physiol. 90:1316–1321, 1989).
row,Compound,use as substrate by the recombinant enzyme (O-glucosylation)
1,C/C(=C\CNc1ncnc2c1ncn2[C@@H]1O[C@H](CO)[C@@H](O)[C@H]1O)CO (relative stereo) [trans-ribosylzeatin],does not use
2,C/C(=C/CNc1ncnc2nc[nH]c12)CO [cis-zeatin],formation of O-glucosyl-cis-zeatin from cis-zeatin
3,CC(CO)CCNc1ncnc2nc[nH]c12 (stereo not drawn) [dihydrozeatin],does not use
4,CC(CO)CCNc1ncnc2c1ncn2[C@@H]1O[C@H](CO)[C@@H](O)[C@H]1O (stereo partly drawn) [ribosyldihydrozeatin],does not use
5,C/C(=C\CNc1ncnc2[nH]cnc12)CO [trans-zeatin],does not use
